Test results from paper PMC4506958 (FEBS Open Bio, 2015).

Legend:
[1] = biological target: T1, Keap1 (Kelch-like ECH-associated protein 1) (Homo sapiens, UniProt Q14145); assay: X-ray crystal structures at […] Å (soaking form 3vnh, cocrystallization form 3vng); SPR; AlphaScreen competition with Nrf2 peptide; type: binding
T1 construct: Kelch domain (residues 321–609)

[2] = biological target: Nrf2 ETGE motif (Homo sapiens) (UniProt Q16236); assay: ITC; settings: cited from earlier work

Keap1 Kelch domain, sequence (Q14145 321-609): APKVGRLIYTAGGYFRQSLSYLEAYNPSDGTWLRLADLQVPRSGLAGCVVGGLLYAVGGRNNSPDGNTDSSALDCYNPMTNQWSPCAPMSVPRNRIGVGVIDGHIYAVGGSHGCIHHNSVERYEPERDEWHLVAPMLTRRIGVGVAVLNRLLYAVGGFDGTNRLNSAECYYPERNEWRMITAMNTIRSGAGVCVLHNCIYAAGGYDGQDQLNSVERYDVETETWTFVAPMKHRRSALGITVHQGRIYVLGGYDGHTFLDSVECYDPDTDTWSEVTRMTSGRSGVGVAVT
T1 sequence (Q14145 321-609): as above

Row | Molecule | Kd [1] | Kd [2]
1 | O=C(O)COc1cccc(CNC(=O)Nc2nnc(-c3ccco3)o2)c1 [Ligand1, 2-(3-((3-(5-(furan-2-yl)-1,3,4-oxadiazol-2-yl)ureido)methyl)phenoxy)acetic acid] | > 50000 nM | 
2 | Keap1 Kelch domain (from UniProt Q14145) |  | 8 nM
